The values below come from patent US9206198B2, “Inhibitors of the renal outer medullary potassium channel” (Merck Sharp & Dohme Corp., priority 2012, dated 2015).

One assay has as its target Kir1.1 (ROMK1) (Homo sapiens (Human), UniProt P48048). As to the kind of experiment: Electrophysiology Assay (whole cell voltage clamp, IonWorks Quattro). Type of assay: cell-based. Particulars: Chinese hamster ovary cells stably expressing Kir1.1; block during voltage step to 0 mV. The protocol: Block of Kir1.1 (ROMK1) currents was examined by whole cell voltage clamp (Hamill et. al. Pfluegers Archives 391:85-100 (1981)) using the IonWorks Quattro automated electrophysiology platform (Molecular Devices, Sunnyvale, Calif.). Chinese hamster ovary cells stably expressing Kir1.1 channels were maintained in T-75 flasks in cell culture media in a humidified 10% CO2 incubator at 37° C. Prior to an experiment, Kir1.1 expression was induced by overnight incubation with 1 mM sodium butyrate. On the day of the experiment, cells were dissociated with 2.5 mL of Versene (Invitrogen 15040-066) for approximately 6 min at 37° C. and suspended in 10 mL of bath solution containing (in mM): 150 NaCl, 10 KCl, 2.7 CaCl2, 0.5 MgCl2, 5 HEPES, pH 7.4. After centrifugation, the cell pellet was resuspended in approximately 4.0 mL of bath solution and placed in the IonWorks instrument. The intracellular solution consisted of (in mM): 80 K gluconate, 40 KCl, 20 KF, 3.2 MgCl2, 3 EGTA, 5 Hepes, pH 7.4. Electrical access to the cytoplasm was achieved by perforation in 0.13 mg/mL amphotericin B for 4 min. Amphotericin B (Sigma A-4888) was prepared as a 40 mg/mL solution in DMSO. Voltage protocols and current recordings were performed using the IonWorks HT software/hardware system. Currents were sampled at 1 kHz. No correction for liquid junction potentials was used. The test pulse, consisting of a 100 ms step to 0 mV from a holding potential of −70 mV, followed by a 100 ms voltage ramp from −70 mV to +70 mV, was applied before and after a 6 min compound incubation period. Test compounds were prepared by diluting DMSO stock solutions into the bath solution at 3× the final concentration and placed in the instrument in 96-well polypropylene plates. Current amplitudes were measured using the IonWorks software. To assess compound potency, the fractional block during the voltage step to 0 mV was calculated in Microsoft Excel (Microsoft, Redmond, Calif.), and dose-response curves were fitted with Igor Pro 4.0 (WaveMetrics, Lake Oswego, Oreg.). Normally, a control compound is included to support that the assay is giving consistent results compared to previous measurements, although the control is not required to obtain the results for the test compounds.
Background: The patch-clamp technique gives a direct electrical read-out from membranes.

The target of a further assay is hROMK (hKir1.1) (Homo sapiens (Human), UniProt P48048). Kind of assay: Thallium Flux Assay (ROMK channel functional thallium flux assay, FLIPR-Tetra). The assay is classed as cell-based. Particulars: HEK293 cells stably expressing hROMK. The protocol:
Cell Culture Conditions— HEK293 cells stably expressing hROMK (hKir1.1) were grown at 37° C. in a 10% CO2 humidified incubator in complete growth media: Dulbecco's Modified Eagle Medium supplemented with non-essential amino acids, Penicillin/Streptomycin/Glutamine, G418 and FBS. At >80% confluency, aspirate the media from the flask and rinse with 10 mL Calcium/Magnesium-free PBS. Add 5 mL of 1× trypsin (prepared in Ca/Mg Free PBS) to T-225 flask and return flask to 37° C./CO2 incubator for 2-3 minutes. To dislodge the cell, gently bang the side of the flask with your hand. Triturate the cells completely and then transfer the cells to 25 mL complete media. Centrifuge at 1,500 rpm for 6 min followed by resuspension in complete growth media and determine cell concentration. For typical re-seeding, 4E6 cells/T-225 flask will attain >80% confluency in 4 days. Under ideal growth conditions and appropriate tissue culture practices, this cell line is stable for 40-45 passages.
FluxOR Kit Components (Invitrogen F10017)
• FluxOR™ Reagent (Component A) • FluxOR™ Assay Buffer (Component B)—10× Concentrate • PowerLoad™ Concentrate (Component C)—100× Concentrate • Probenecid (Component D)—Lyophilized sample is kept at −20° C. Water soluble, 100×after solubilization in 1 mL water. Store at 4° C. • FluxOR™ Chloride-free Buffer (Component E)—5× Concentrate • Potassium sulfate (K2SO4) Concentrate (Component F)—125 mM in water. Store at 4° C. • Thallium sulfate (Tl2SO4) Concentrate (Component G)—50 mM in water. Store at 4° C. • DMSO (dimethyl sulfoxide, Component H)—1 mL (100%) Reagent Preparation: FluxOR Working Solutions • 1000× FluxOR™ Reagent: Reconstitute a vial of component A in 100 μl DMSO; Mix well; Store 10 μl aliquots at −20° C. • 1× FluxOR™ Assay Buffer: Dilute Component B 10-fold with water; Adjust pH to 7.4 with Hepes/NaOH; Filter and store at 4° C. • Probenecid/Assay Buffer: 100 mL of 1× FluxOR™ Assay Buffer; 1 mL of reconstituted component D; Store at 4° C. • Loading Buffer (per microplate): 10 μl 1000× FluxOR™ Reagent; 100 μl component C; 10 mL Probenecid/Assay Buffer • Compound Buffer (per microplate): 20 mL Probenecid/Assay Buffer; 0.3 mM ouabain (10 mM ouabain in water can be stored in amber bottle/aluminum foil at room temperature); Test compound • 1× FluxOR™ Chloride-Free Buffer: Prepare 1× working solution in water. Can be stored at room temperature • Stimulant Buffer (prepared at 5× final concentration in 1× FluxOR™ Chloride-Free Buffer): 7.5 mM Thallium sulfate and 0.75 mM Potassium sulfate (to give a final assay concentration of 3 mM Thallium 0.3 mM Potassium). Store at 4° C. when not in use. If kept sterile, this solution is good for months.
Assay Protocol—The ROMK channel functional thallium flux assay is performed in 384 wells, using the FLIPR-Tetra instrument. HEK-hKir1.1 cells are seeded in Poly-D-Lysine microplates and kept in a 37° C.-10% CO2 incubator overnight. On the day of the experiment, the growth media is replaced with the FluxOR™ reagent loading buffer and incubated, protected from light, at ambient temperature (23-25° C.) for 90 min. The loading buffer is replaced with assay buffer±test compound followed by 30 min incubation at ambient temperature, where the Thallium/Potassium stimulant is added to the microplate.
• 1. Seed HEK-hKir1.1 cells ([…] at 20,000 cells/well) in 384-well PDL coated Microplates • 2. Allow cells to adhere overnight in humidified 37° C./10% CO2 incubator • 3. Completely remove cell growth media from microplate and replace with 25 μl loading buffer • 4. Incubate Microplate at room temperature, protected form light, for 90 min • 5. Remove loading buffer and replace with 25 μl 1× Assay Buffer±test compound. • 6. Incubate microplate at room temperature, protected from light, for 30 min • 7. At FLIPR-Tetra 384: Add stimulant (Thallium/Potassium) solution to microplate and monitor fluorescence. Excitation=400 nm, Emission=460 & 580 nm. Collect data for 10 min.

In general, IC50 refers to the concentration needed to halve the response being measured. A lower IC50 goes with greater potency in that assay.

Sequence of Kir1.1 (ROMK1) (P48048 whole entry, species assumed): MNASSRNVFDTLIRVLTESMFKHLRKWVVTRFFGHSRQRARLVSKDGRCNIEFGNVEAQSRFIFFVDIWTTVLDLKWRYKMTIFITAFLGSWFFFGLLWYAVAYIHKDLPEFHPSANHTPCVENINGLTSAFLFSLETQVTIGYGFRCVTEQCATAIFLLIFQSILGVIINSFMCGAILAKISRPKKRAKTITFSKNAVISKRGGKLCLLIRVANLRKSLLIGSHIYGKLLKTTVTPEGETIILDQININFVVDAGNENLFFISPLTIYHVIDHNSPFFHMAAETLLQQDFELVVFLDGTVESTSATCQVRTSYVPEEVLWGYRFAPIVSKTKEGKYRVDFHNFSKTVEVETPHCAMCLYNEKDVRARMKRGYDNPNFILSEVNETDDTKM
Sequence of hROMK (hKir1.1) (P48048 whole entry): as the sequence (P48048 whole entry, species assumed) above

On to `Cc1c([C@H](O)CN2CCC3(CC2)CCN(C2=CC(=O)OC2)C3=O)ccc2c1COC2=O` [Example 21], for which the IC50 is 0.39 µM against Kir1.1 (ROMK1) and 0.37 µM on hROMK (hKir1.1).

As for `Cc1c([C@@H](O)CN2CCC3(CC2)CCN(C2=C(F)C(=O)OC2)C3=O)ccc2c1COC2=O` [Example 22], the IC50 against Kir1.1 (ROMK1) is 0.004 µM; against hROMK (hKir1.1) it was 0.03 µM.

Regarding `Cc1c([C@@H](O)CN2CCC3(CCCN(C4=CC(=O)OC4)C3=O)CC2)ccc2c1COC2=O` [Example 23], the IC50 on Kir1.1 (ROMK1) amounted to 0.01 µM; against hROMK (hKir1.1) it was 0.02 µM.

Consider `Cc1c([C@@H](O)CN2CCC3(CCCN(C4=CC(=O)OC4)C3)CC2)ccc2c1COC2=O` [Example 24], for which the IC50 turned out to be 0.62 µM on Kir1.1 (ROMK1) and 0.24 µM on hROMK (hKir1.1).

Consider `Cc1c([C@@H](O)CN2CCC3(CC2)CCN(C2=C(Cl)C(=O)OC2)C3=O)ccc2c1COC2=O` [Example 25], for which the IC50 at Kir1.1 (ROMK1) and against hROMK (hKir1.1) was 0.01 µM each time.

As to `CO[C@@H](CN1CCC2(CC1)CCN(C1=CC(=O)OC1)C2=O)c1ccc2c(c1C)COC2=O` [Example 51, 8-[(2R)-2-methoxy-2-(4-methyl-1-oxo-1,3-dihydro-2-benzofuran-5-yl)ethyl]-2-(5-oxo-2,5-dihydrofuran-3-yl)-2,8-diazaspiro[4.5]decan-1-one], the figures for the IC50 against Kir1.1 (ROMK1) and at hROMK (hKir1.1) were 0.02 µM and 0.31 µM, respectively.

`COC1CN(C[C@H](O)c2ccc3c(c2C)COC3=O)CCC12CCN(C1=C(C)C(=O)OC1)C2=O` (some centres unmarked) [Example 83]: the half-inhibitory concentration (IC50) against Kir1.1 (ROMK1) amounted to 0.05 µM; against hROMK (hKir1.1), 0.04 µM.
